Assay results: ChEMBL document CHEMBL1142986, “Synthesis of valiolamine and some precursors for bioactive carbaglycosylamines from (-)-vibo-quercitol produced by biogenesis of myo-inositol” (J Nat Prod, 2007)

Molecular target: Alpha-glucosidase MAL12 (Saccharomyces cerevisiae S288c, UniProt P53341)
Assay: Inhibition of baker's yeast alpha-glucosidase

Sequence of Alpha-glucosidase MAL12 (P53341 whole entry): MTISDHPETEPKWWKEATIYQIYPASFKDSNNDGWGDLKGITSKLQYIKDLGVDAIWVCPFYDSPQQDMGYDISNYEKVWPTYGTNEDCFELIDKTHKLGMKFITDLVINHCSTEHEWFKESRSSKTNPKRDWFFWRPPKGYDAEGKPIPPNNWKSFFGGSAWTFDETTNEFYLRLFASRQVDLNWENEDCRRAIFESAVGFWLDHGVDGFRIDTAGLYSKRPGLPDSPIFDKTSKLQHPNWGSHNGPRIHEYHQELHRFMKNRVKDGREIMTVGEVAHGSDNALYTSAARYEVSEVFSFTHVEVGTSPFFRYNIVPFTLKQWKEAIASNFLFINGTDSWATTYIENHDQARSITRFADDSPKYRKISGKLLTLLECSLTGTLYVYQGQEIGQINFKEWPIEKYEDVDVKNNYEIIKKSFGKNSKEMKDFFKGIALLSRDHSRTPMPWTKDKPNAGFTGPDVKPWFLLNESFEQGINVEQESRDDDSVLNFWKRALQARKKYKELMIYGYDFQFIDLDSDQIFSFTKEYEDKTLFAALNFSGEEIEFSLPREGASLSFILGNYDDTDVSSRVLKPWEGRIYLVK

With `N[C@@H]1C[C@](O)(CO)[C@@H](O)[C@H](O)[C@H]1O` the IC50 was 36 µM.
